# Assay results from US12427187B2, “Glucose-responsive insulin conjugates” (priority 2019, dated 2025).
# Like-named read-outs stand apart in the source and are kept apart here.
# Experiments:
# human IR(B) = human IR(B) (Homo sapiens, UniProt P06213); assay: Insulin receptor phosphorylation assay (MSD pIR); format: cell-based; conditions: CHO cells expressing human IR(B), IP = inflection point, read-out: IR Activation IP
# Method: CHO cells stably expressing human IR(B) were in grown in F12 cell media containing 10% FBS and antibiotics (G418, Penicillin/Strepavidin) for at least 8 hr, and then serum starved by switching to F12 media containing 0.5% BSA (insulin-free) in place of FBS for overnight growth. Cells were harvested and frozen in aliquots for use in the MSD pIR assay. Briefly, the frozen cells were plated in either 96-well (40,000 cells/well, Methods A) or 384-well (10,000 cells/well, Method B) clear tissue culture plates and allowed to recover. IOC molecules at the appropriate concentrations were added and the cells incubated for 8 min at 37° C. The media was aspirated and chilled MSD cell lysis buffer was added as per MSD kit instructions. The cells were lysed on ice for 40 min and the lysate then mixed for 10 min at rt. The lysate was transferred to the MSD kit pIR detection plates. The remainder of the assay was carried out following the MSD kit recommended protocol.
# The in vitro biological activities towards insulin receptor (IR) were measured by either ligand competition assays or functional phosphorylation assays, as described above, labeled as following: Method A: IR phosphorylation assay based on 96-well; Method B: IR phosphorylation assay based on 384-well with automated liquid dispense; Method C: cell-based IR binding assay; Method D: SPA IR binding assay method E; Method E: MRC1 assay was performed in a 96-well plate; Method F: MRC1 assay was performed in a 384-well plate.
# [1] = molecular target: T1, Human macrophage mannose receptor 1 (MRC1) (Homo sapiens, UniProt P22897); assay: MRC1 competition binding assay with Eu-mannosylated-BSA; conditions: IP = inflection point, read-out: MRC1 Binding IP
# T1 sequence (P22897 19-1456): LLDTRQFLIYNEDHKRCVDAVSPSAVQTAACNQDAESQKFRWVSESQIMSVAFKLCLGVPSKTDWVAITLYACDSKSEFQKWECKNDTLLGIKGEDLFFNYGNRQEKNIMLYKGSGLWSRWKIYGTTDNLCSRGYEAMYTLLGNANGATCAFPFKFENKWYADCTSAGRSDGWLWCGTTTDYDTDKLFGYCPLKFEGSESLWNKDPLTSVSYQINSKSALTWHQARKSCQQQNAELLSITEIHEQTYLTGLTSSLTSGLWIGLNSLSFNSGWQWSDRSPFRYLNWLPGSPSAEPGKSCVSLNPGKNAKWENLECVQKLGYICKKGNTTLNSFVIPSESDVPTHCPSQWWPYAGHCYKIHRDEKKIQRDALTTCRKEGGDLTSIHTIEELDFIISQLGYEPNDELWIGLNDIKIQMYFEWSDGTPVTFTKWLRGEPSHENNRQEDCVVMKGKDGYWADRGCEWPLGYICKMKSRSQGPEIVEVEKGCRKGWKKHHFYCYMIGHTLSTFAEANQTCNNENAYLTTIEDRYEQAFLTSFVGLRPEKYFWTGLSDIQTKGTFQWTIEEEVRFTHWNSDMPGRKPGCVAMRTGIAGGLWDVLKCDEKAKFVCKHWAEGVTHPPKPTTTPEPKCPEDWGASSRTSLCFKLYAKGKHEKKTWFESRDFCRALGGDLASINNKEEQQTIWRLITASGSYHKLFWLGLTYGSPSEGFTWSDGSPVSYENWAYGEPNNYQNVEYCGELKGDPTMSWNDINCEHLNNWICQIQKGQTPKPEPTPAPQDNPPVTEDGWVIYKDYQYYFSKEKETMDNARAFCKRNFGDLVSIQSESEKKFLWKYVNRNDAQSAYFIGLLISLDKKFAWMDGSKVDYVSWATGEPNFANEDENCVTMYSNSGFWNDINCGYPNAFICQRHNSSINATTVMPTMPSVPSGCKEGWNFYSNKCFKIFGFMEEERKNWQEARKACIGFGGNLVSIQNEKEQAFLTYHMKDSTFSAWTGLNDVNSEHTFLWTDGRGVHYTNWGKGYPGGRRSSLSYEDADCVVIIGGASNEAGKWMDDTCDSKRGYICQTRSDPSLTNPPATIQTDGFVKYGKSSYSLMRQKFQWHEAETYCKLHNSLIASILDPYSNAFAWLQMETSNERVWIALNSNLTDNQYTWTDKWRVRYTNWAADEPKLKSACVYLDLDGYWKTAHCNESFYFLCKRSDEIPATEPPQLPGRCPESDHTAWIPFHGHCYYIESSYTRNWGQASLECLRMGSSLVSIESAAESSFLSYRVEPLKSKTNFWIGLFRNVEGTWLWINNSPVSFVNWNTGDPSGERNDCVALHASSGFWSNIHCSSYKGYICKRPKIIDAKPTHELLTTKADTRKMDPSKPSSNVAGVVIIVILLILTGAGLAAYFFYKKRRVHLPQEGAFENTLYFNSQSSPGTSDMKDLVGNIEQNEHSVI
# [2] = molecular target: human insulin receptor type B (IR(B)) (Homo sapiens, UniProt P06213); assay: IR binding assay, scintillation proximity assay on cell membranes (Method D); conditions: Method D: SPA IR binding assay; IP = inflection point
# Method: Method D: IR binding assay was run in a scintillation proximity assay (SPA) in 384-well format using cell membranes prepared from CHO cells overexpressing human IR(B) grown in F12 media containing 10% FBS and antibiotics (G418, Penicillin/Strepavidin). Cell membranes were prepared in 50 mM Tris buffer, pH 7.8 containing 5 mM MgCl2. The assay buffer contained 50 mM Tris buffer, pH 7.5, 150 mM NaCl, 1 mM CaCl2, 5mgCl2, 0.1% BSA and protease inhibitors (Complete-Mini-Roche). Cell membranes were added to WGA PVT PEI SPA beads (5 mg/mL final concentration) followed by addition of IOC molecules at appropriate concentrations.
# [3] = Method B: IR phosphorylation assay, 384-well with automated liquid dispense
# Chain of human IR(B) (P06213 28-758 limits assumed): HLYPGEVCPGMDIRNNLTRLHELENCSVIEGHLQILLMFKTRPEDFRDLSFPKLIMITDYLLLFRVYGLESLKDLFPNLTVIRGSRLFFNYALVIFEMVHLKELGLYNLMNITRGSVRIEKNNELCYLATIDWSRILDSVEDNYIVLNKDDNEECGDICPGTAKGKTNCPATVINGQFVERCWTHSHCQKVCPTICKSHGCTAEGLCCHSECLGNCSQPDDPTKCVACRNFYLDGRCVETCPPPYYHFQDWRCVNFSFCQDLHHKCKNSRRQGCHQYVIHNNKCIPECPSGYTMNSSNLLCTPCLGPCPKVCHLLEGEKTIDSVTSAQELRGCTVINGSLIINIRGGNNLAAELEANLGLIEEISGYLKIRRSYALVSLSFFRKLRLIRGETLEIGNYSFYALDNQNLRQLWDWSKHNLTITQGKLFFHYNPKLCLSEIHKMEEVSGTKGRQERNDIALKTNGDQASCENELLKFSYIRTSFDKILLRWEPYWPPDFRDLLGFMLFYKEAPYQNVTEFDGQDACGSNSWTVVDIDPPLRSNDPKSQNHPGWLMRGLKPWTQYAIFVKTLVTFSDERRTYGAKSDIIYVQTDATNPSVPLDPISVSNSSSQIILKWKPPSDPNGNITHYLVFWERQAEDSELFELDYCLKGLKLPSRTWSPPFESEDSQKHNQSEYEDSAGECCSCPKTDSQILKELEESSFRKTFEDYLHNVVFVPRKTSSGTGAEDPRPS
# Chain of human IR(B) (P06213 763-1382 partner limits assumed): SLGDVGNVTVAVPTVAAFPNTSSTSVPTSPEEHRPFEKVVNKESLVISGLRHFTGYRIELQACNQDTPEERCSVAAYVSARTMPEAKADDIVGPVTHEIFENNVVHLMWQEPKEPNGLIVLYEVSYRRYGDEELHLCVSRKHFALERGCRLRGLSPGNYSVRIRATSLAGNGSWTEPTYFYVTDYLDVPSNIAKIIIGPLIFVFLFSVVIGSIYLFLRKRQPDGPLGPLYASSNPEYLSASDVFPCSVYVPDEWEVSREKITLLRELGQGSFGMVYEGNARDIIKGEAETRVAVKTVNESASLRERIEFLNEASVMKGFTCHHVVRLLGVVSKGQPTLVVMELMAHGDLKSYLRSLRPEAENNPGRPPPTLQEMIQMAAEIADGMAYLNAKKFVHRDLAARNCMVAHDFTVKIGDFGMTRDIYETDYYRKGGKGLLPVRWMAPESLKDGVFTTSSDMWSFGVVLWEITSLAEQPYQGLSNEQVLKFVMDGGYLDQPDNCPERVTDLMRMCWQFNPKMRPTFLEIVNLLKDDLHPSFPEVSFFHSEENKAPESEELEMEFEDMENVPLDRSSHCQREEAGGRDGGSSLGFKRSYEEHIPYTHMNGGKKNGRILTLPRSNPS
# Chain of human insulin receptor type B (IR(B)) (P06213 28-758 limits assumed): as the sequence (P06213 28-758 limits assumed) above
# Chain of human insulin receptor type B (IR(B)) (P06213 763-1382 partner limits assumed): as the sequence (P06213 763-1382 partner limits assumed) above
SMILES,EC50 (human IR(B); [3]),IC50 ([1]; Method F: 384-well plate),IC50 ([1]; Method E: 96-well plate),"EC50 (human IR(B); Method A: IR phosphorylation assay, 96-well)",IC50 [2]
CC(=O)[C@H](CCCCN)NC(=O)CCCCCNC(=O)[C@H](CCCCNC(=O)CCCCCNC(=O)CN(CC(=O)NCCO[C@@H]1O[C@@H](C)[C@@H](O)[C@@H](O)[C@@H]1O)CC(=O)N(CCOC1C[C@H](CO)[C@@H](O)[C@H](O)[C@@H]1O)CCOC1O[C@H](CO)[C@@H](O)[C@H](O)[C@@H]1O)NC(=O)[C@H](CCCCNC(=O)CCCCCNC(=O)CN(CC(=O)NCCO[C@@H]1O[C@@H](C)[C@@H](O)[C@@H](O)[C@@H]1O)CC(=O)N(CCOC1C[C@H](CO)[C@@H](O)[C@H](O)[C@@H]1O)CCOC1O[C@H](CO)[C@@H](O)[C@H](O)[C@@H]1O)NC(=O)CCCCCNC(=O)CN(CC(=O)NCCO[C@@H]1O[C@@H](C)[C@@H](O)[C@@H](O)[C@@H]1O)CC(=O)N(CCOC1O[C@H](CO)[C@@H](O)[C@H](O)[C@@H]1O)CCOC1O[C@H](CO)[C@@H](O)[C@H](O)[C@@H]1O (stereo partly drawn) [IOC-59],1.98 nM,2.58 nM,,,
CC(=O)[C@H](CCCCN)NC(=O)CCCCCNC(=O)[C@H](CCCCNC(=O)CCCC(=O)N[C@@H](CCC(=O)N(CCOC1O[C@H](CO)[C@@H](O)[C@H](O)[C@@H]1O)CCOC1O[C@H](CO)[C@@H](O)[C@H](O)[C@@H]1O)C(=O)N(CCOC1O[C@H](CO)[C@@H](O)[C@H](O)[C@@H]1O)CCOC1O[C@H](CO)[C@@H](O)[C@H](O)[C@@H]1O)NC(=O)[C@H](CCCCNC(=O)CCCC(=O)N[C@@H](CCC(=O)N(CCOC1O[C@H](CO)[C@@H](O)[C@H](O)[C@@H]1O)CCOC1O[C@H](CO)[C@@H](O)[C@H](O)[C@@H]1O)C(=O)N(CCOC1O[C@H](CO)[C@@H](O)[C@H](O)[C@@H]1O)CCOC1O[C@H](CO)[C@@H](O)[C@H](O)[C@@H]1O)NC(=O)CCCC(=O)N[C@@H](CCC(=O)N(CCOC1O[C@H](CO)[C@@H](O)[C@H](O)[C@@H]1O)CCOC1O[C@H](CO)[C@@H](O)[C@H](O)[C@@H]1O)C(=O)N(CCOC1O[C@H](CO)[C@@H](O)[C@H](O)[C@@H]1O)CCOC1O[C@H](CO)[C@@H](O)[C@H](O)[C@@H]1O (stereo partly drawn) [IOC-62],2.11 nM,,11.5 nM,,
CC(=O)[C@H](CCCCN)NC(=O)CCCCC(=O)N[C@@H](CCC(=O)NCCO[C@@H]1O[C@@H](C)[C@@H](O)[C@@H](O)[C@@H]1O)C(=O)N[C@@H](CCC(=O)NCCO[C@@H]1O[C@@H](C)[C@@H](O)[C@@H](O)[C@@H]1O)C(=O)N[C@@H](CCC(=O)NCCO[C@@H]1O[C@@H](C)[C@@H](O)[C@@H](O)[C@@H]1O)C(=O)NCCO[C@@H]1O[C@@H](C)[C@@H](O)[C@@H](O)[C@@H]1O [IOC-19],,,16 nM,0.81 nM,

# Further compounds by falling EC50 (human IR(B); [3]), results first:
EC50 (human IR(B); [3]),IC50 ([1]; Method F: 384-well plate),IC50 ([1]; Method E: 96-well plate),"EC50 (human IR(B); Method A: IR phosphorylation assay, 96-well)",IC50 [2],SMILES
1.72 nM,1.99 nM,,,1.95 nM,CC(=O)[C@H](CCCCN)NC(=O)CCCCCNC(=O)[C@H](CCCCNC(=O)CCCCCNC(=O)CN(CC(=O)NCCO[C@H]1O[C@H](CO[C@H]2O[C@H](CO)[C@@H](O)[C@H](O)[C@@H]2O)[C@@H](O)[C@H](O[C@H]2O[C@H](CO)[C@@H](O)[C@H](O)[C@@H]2O)[C@@H]1O)CC(=O)NCCO[C@H]1O[C@H](CO[C@H]2O[C@H](CO)[C@@H](O)[C@H](O)[C@@H]2O)[C@@H](O)[C@H](O[C@H]2O[C@H](CO)[C@@H](O)[C@H](O)[C@@H]2O)[C@@H]1O)NC(=O)[C@H](CCCCNC(=O)CCCCCNC(=O)CN(CC(=O)NCCO[C@H]1O[C@H](CO[C@H]2O[C@H](CO)[C@@H](O)[C@H](O)[C@@H]2O)[C@@H](O)[C@H](O[C@H]2O[C@H](CO)[C@@H](O)[C@H](O)[C@@H]2O)[C@@H]1O)CC(=O)NCCO[C@H]1O[C@H](CO[C@H]2O[C@H](CO)[C@@H](O)[C@H](O)[C@@H]2O)[C@@H](O)[C@H](O[C@H]2O[C@H](CO)[C@@H](O)[C@H](O)[C@@H]2O)[C@@H]1O)NC(=O)CCCCCNC(=O)CN(CC(=O)NCCO[C@H]1O[C@H](CO[C@H]2O[C@H](CO)[C@@H](O)[C@H](O)[C@@H]2O)[C@@H](O)[C@H](O[C@H]2O[C@H](CO)[C@@H](O)[C@H](O)[C@@H]2O)[C@@H]1O)CC(=O)NCCO[C@H]1O[C@H](CO[C@H]2O[C@H](CO)[C@@H](O)[C@H](O)[C@@H]2O)[C@@H](O)[C@H](O[C@H]2O[C@H](CO)[C@@H](O)[C@H](O)[C@@H]2O)[C@@H]1O [IOC-42]
1.17 nM,0.87 nM,,,,CC(=O)[C@H](CCCCN)NC(=O)CCCCCNC(=O)[C@H](CCCCNC(=O)CCCCC(=O)NCCCC[C@@H](C(=O)NCCO[C@@H]1O[C@@H](C)[C@@H](O)[C@@H](O)[C@@H]1O)N(CC(=O)NCCO[C@@H]1O[C@@H](C)[C@@H](O)[C@@H](O)[C@@H]1O)CC(=O)NCCO[C@@H]1O[C@@H](C)[C@@H](O)[C@@H](O)[C@@H]1O)NC(=O)[C@H](CCCCNC(=O)CCCCC(=O)NCCCC[C@@H](C(=O)NCCO[C@@H]1O[C@@H](C)[C@@H](O)[C@@H](O)[C@@H]1O)N(CC(=O)NCCO[C@@H]1O[C@@H](C)[C@@H](O)[C@@H](O)[C@@H]1O)CC(=O)NCCO[C@@H]1O[C@@H](C)[C@@H](O)[C@@H](O)[C@@H]1O)NC(=O)CCCCC(=O)NCCCC[C@@H](C(=O)NCCO[C@@H]1O[C@@H](C)[C@@H](O)[C@@H](O)[C@@H]1O)N(CC(=O)NCCO[C@@H]1O[C@@H](C)[C@@H](O)[C@@H](O)[C@@H]1O)CC(=O)NCCO[C@@H]1O[C@@H](C)[C@@H](O)[C@@H](O)[C@@H]1O [IOC-58]
1.12 nM,,1.89 nM,,,CC(=O)[C@H](CCCCN)NC(=O)CCCCCNC(=O)[C@H](CCCCNC(=O)CCCCCNC(=O)CN(CC(=O)N(CCOC1O[C@H](CO)[C@@H](O)[C@H](O)[C@@H]1O)CCOC1O[C@H](CO)[C@@H](O)[C@H](O)[C@@H]1O)CC(=O)N(CCOC1O[C@H](CO)[C@@H](O)[C@H](O)[C@@H]1O)CCOC1O[C@H](CO)[C@@H](O)[C@H](O)[C@@H]1O)NC(=O)[C@H](CCCCNC(=O)CCCCCNC(=O)CN(CC(=O)N(CCOC1O[C@H](CO)[C@@H](O)[C@H](O)[C@@H]1O)CCOC1O[C@H](CO)[C@@H](O)[C@H](O)[C@@H]1O)CC(=O)N(CCOC1O[C@H](CO)[C@@H](O)[C@H](O)[C@@H]1O)CCOC1O[C@H](CO)[C@@H](O)[C@H](O)[C@@H]1O)NC(=O)CCCCCNC(=O)CN(CC(=O)N(CCOC1O[C@H](CO)[C@@H](O)[C@H](O)[C@@H]1O)CCOC1O[C@H](CO)[C@@H](O)[C@H](O)[C@@H]1O)CC(=O)N(CCOC1O[C@H](CO)[C@@H](O)[C@H](O)[C@@H]1O)CCOC1O[C@H](CO)[C@@H](O)[C@H](O)[C@@H]1O (stereo partly drawn) [IOC-61]
0.84 nM,13.1 nM,,,,CC(=O)[C@H](CCCCN)NC(=O)CCCCC(=O)NCC(=O)N[C@@H](CCC(=O)N[C@@H](CCC(=O)NCCCCCC(=O)N(CC(=O)NCCO[C@H]1O[C@H](CO)[C@@H](O)[C@H](O)[C@@H]1O)CC(=O)NCCO[C@@H]1O[C@@H](C)[C@@H](O)[C@@H](O)[C@@H]1O)C(=O)NCCCCCC(=O)N(CC(=O)NCCO[C@H]1O[C@H](CO)[C@@H](O)[C@H](O)[C@@H]1O)CC(=O)NCCO[C@@H]1O[C@@H](C)[C@@H](O)[C@@H](O)[C@@H]1O)C(=O)NCCCCCC(=O)N(CC(=O)NCCO[C@H]1O[C@H](CO)[C@@H](O)[C@H](O)[C@@H]1O)CC(=O)NCCO[C@@H]1O[C@@H](C)[C@@H](O)[C@@H](O)[C@@H]1O [IOC-50]
